# Data as given in ChEMBL document CHEMBL1697731, “Cheminformatics analysis of assertions mined from literature that describe drug-induced liver injury in different species” (Chem Res Toxicol, 2010).
# How the values were obtained:
# Hepatotoxicity [1] = assay: Literature-mined compound from Fourches et al multi-species drug-induced liver injury (DILI) dataset, effect in non-rodents
# Hepatotoxicity [2] = assay: Literature-mined compound from Fourches et al multi-species drug-induced liver injury (DILI) dataset, effect in rodents; details: rodentia
# Hepatotoxicity [3] = assay: Literature-mined compound from Fourches et al multi-species drug-induced liver injury (DILI) dataset, effect in humans; details: human
Compound,Hepatotoxicity (Hepatotoxicity [1]),Hepatotoxicity (Hepatotoxicity [2]),Hepatotoxicity (Hepatotoxicity [3]),Hepatotoxicity (Hepatotoxicity [1]; Liver),Hepatotoxicity (Hepatotoxicity [2]; Liver),Hepatotoxicity (Hepatotoxicity [3]; Liver)
COc1ccc(-c2cc(=O)c3c(O)cc(O[C@@H]4O[C@H](CO[C@@H]5O[C@@H](C)[C@H](O)[C@@H](O)[C@H]5O)[C@@H](O)[C@H](O)[C@H]4O)cc3o2)cc1O [DIOSMIN],no drug-induced liver injury reported,drug-induced liver injury reported,no drug-induced liver injury reported,,,
CCC1(CC)C(=O)NC(=O)NC1=O [BARBITAL],no drug-induced liver injury reported,drug-induced liver injury reported,no drug-induced liver injury reported,,,
COC(=O)C1=C(C)NC(C)=C(C(=O)OCC(C)C)C1c1ccccc1[N+](=O)[O-] (stereo not drawn) [NISOLDIPINE],drug-induced liver injury reported,drug-induced liver injury reported,drug-induced liver injury reported,,,
COc1c(C)c2c(c(O)c1C/C=C(\C)CCC(=O)O)C(=O)OC2 [MYCOPHENOLIC ACID],no drug-induced liver injury reported,drug-induced liver injury reported,drug-induced liver injury reported,,,
CN(C)[C@@H]1C(O)=C(C(N)=O)C(=O)[C@@]2(O)C(O)=C3C(=O)c4c(O)cccc4[C@@](C)(O)[C@H]3C[C@@H]12 [TETRACYCLINE],drug-induced liver injury reported,drug-induced liver injury reported,drug-induced liver injury reported,,,
O=C(O)C(Cl)(Cl)Cl [TRICHLOROACETIC ACID],no drug-induced liver injury reported,drug-induced liver injury reported,no drug-induced liver injury reported,,,
FC(F)OC(F)(F)C(F)Cl (stereo not drawn),drug-induced liver injury reported,drug-induced liver injury reported,drug-induced liver injury reported,,,
CC1(C)[C@@H](O)CC[C@]2(C)[C@H]3C(=O)C=C4[C@@H]5C[C@@](C)(C(=O)O)CC[C@]5(C)CC[C@@]4(C)[C@]3(C)CC[C@@H]12 [ENOXOLONE],no drug-induced liver injury reported,drug-induced liver injury reported,drug-induced liver injury reported,,,
CCOC(=O)[C@H](CCc1ccccc1)N[C@@H](C)C(=O)N1CCC[C@H]1C(=O)O,no drug-induced liver injury reported,drug-induced liver injury reported,drug-induced liver injury reported,,,
Cc1nccn1CC1CCc2c(c3ccccc3n2C)C1=O (stereo not drawn) [ONDANSETRON],no drug-induced liver injury reported,no drug-induced liver injury reported,drug-induced liver injury reported,,,
Cc1cc(-c2ccc(/N=N/c3c(S(=O)(=O)[O-])cc4cc(S(=O)(=O)[O-])cc(N)c4c3O)c(C)c2)ccc1/N=N/c1c(S(=O)(=O)[O-])cc2cc(S(=O)(=O)[O-])cc(N)c2c1O.[Na+].[Na+].[Na+].[Na+] [TRYPAN BLUE],no drug-induced liver injury reported,drug-induced liver injury reported,no drug-induced liver injury reported,,,
CO[C@]12C[C@@H](COC(=O)c3cncc(Br)c3)CN(C)[C@@H]1Cc1cn(C)c3cccc2c13 [NICERGOLINE],no drug-induced liver injury reported,drug-induced liver injury reported,no drug-induced liver injury reported,,,
C[N+](C)(C)CC(=O)O [BETAINE],no drug-induced liver injury reported,drug-induced liver injury reported,no drug-induced liver injury reported,,,
CN1CC[C@]23c4c5ccc(O)c4O[C@H]2[C@@H](O)C=C[C@H]3[C@H]1C5 [MORPHINE],,,,no drug-induced liver injury reported,drug-induced liver injury reported,drug-induced liver injury reported
C[C@]12CC[C@@H]3c4ccc(O)cc4CC[C@H]3[C@@H]1C[C@@H](O)[C@@H]2O [ESTRIOL],no drug-induced liver injury reported,drug-induced liver injury reported,no drug-induced liver injury reported,,,
CCOC(=O)C1=C(C)NC(C)=C(C(=O)OC)C1c1cccc([N+](=O)[O-])c1 (stereo not drawn) [NITRENDIPINE],no drug-induced liver injury reported,drug-induced liver injury reported,drug-induced liver injury reported,,,
C[C@@H]1CN(c2c(F)c(N)c3c(=O)c(C(=O)O)cn(C4CC4)c3c2F)C[C@H](C)N1 [SPARFLOXACIN],no drug-induced liver injury reported,no drug-induced liver injury reported,drug-induced liver injury reported,,,
CCc1cccc2c3c([nH]c12)C(CC)(CC(=O)O)OCC3 (stereo not drawn) [ETODOLAC],no drug-induced liver injury reported,drug-induced liver injury reported,drug-induced liver injury reported,,,
CC(C)C(=O)Nc1ccc([N+](=O)[O-])c(C(F)(F)F)c1 [FLUTAMIDE],no drug-induced liver injury reported,drug-induced liver injury reported,drug-induced liver injury reported,,,
CARBOPLATIN,no drug-induced liver injury reported,drug-induced liver injury reported,drug-induced liver injury reported,,,
O=C(O)COCCN1CCN(C(c2ccccc2)c2ccc(Cl)cc2)CC1 (stereo not drawn) [CETIRIZINE],,,,no drug-induced liver injury reported,no drug-induced liver injury reported,drug-induced liver injury reported
NC[C@H]1O[C@H](O[C@H]2[C@H](O)[C@@H](O[C@H]3O[C@H](CO)[C@@H](O)[C@H](N)[C@H]3O)[C@H](N)C[C@@H]2N)[C@H](N)C[C@@H]1O [TOBRAMYCIN],no drug-induced liver injury reported,drug-induced liver injury reported,no drug-induced liver injury reported,,,
Cc1oc(-c2ccccc2)nc1CCOc1ccc(CC2C(=O)NOC2=O)cc1 (stereo not drawn) [REGLITAZAR],no drug-induced liver injury reported,drug-induced liver injury reported,no drug-induced liver injury reported,,,
COC1=C(OC)C(=O)C(CCCCCCCCCCO)=C(C)C1=O [IDEBENONE],no drug-induced liver injury reported,drug-induced liver injury reported,no drug-induced liver injury reported,,,
CCC(=O)C(CC(C)N(C)C)(c1ccccc1)c1ccccc1 (stereo not drawn) [METHADONE],no drug-induced liver injury reported,drug-induced liver injury reported,drug-induced liver injury reported,,,
CCc1c2c(nc3ccc(OC(=O)N4CCC(N5CCCCC5)CC4)cc13)-c1cc3c(c(=O)n1C2)COC(=O)[C@]3(O)CC [IRINOTECAN],no drug-induced liver injury reported,no drug-induced liver injury reported,drug-induced liver injury reported,,,
